Where a name gives a salt, the structure may show the parent alone. Read-outs that look alike come from different tables or passages of the source.

The subject of the experiment is LMP1 expression in Kem I cells. Nature of the experiment: microbe, parasite or virus in culture. Conditions: for fold induction at 2.5 µM / fold induction at 1 µM: human gammaherpesvirus 4, 48 h; for Average LMP1 Fold Increase / Replicate 1-LMP1 Fold Increase / Replicate 2-LMP1 Fold Increase: Kem I cells, 48 hours; for Average LMP1 Fold Increase: average of replicates 1 and 2; for Replicate 1-LMP1 Fold Increase / Replicate 2-LMP1 Fold Increase: fold change in LMP1 transcript vs vehicle. It counts as cell-based, EBV.

[1] abbreviates: read-out: Average LMP1 Fold Increase, Kem I cells, 2.5 uM, 48 hours, average of replicates 1 and 2.
Where [2] appears, read: read-out: Replicate 1-LMP1 Fold Increase, Kem I cells, 2.5 uM, 48 hours, fold change in LMP1 transcript vs vehicle.
The mark [3] stands for this setting: read-out: Replicate 2-LMP1 Fold Increase, Kem I cells, 2.5 uM, 48 hours, fold change in LMP1 transcript vs vehicle.

Turning to `CCCCN1CCCCC1C(=O)Nc1c(C)cccc1C` (stereo not drawn) [Bupivacaine HCl], the fold induction at 2.5 µM is 0.59 under setting [1], 0.64 under setting [2] and 0.53 under setting [3].

With `NC1(Cc2ccc(Cl)cc2)CCN(c2ncnc3[nH]ccc23)CC1` [CCT128930], under “2.5 uM”, the “Average LMP1 Fold Increase” value was determined as 0.59, the “Replicate 1-LMP1 Fold Increase” value is given as 0.40 and the “Replicate 2-LMP1 Fold Increase” value was 0.78.

In the case of `CC(C)C[C@H](NC(=O)[C@@H](NC(=O)c1cccc(-c2ccccc2)n1)[C@@H](C)O)B(O)O` [CEP-18770 (Delanzomib)], under “2.5 uM”, the “Average LMP1 Fold Increase” value is given as 96.92, the “Replicate 1-LMP1 Fold Increase” value is recorded as 98.21 and the “Replicate 2-LMP1 Fold Increase” value was found to be 95.63.

With `O=C(NC(NC(=S)Nc1ccc(F)c([N+](=O)[O-])c1)C(Cl)(Cl)Cl)C(c1ccccc1)c1ccccc1` (stereo not drawn) [CGK 733], where the note is “2.5 uM”, the “Average LMP1 Fold Increase” value is on record as 0.71, the “Replicate 1-LMP1 Fold Increase” value was 0.58 and the “Replicate 2-LMP1 Fold Increase” value came to 0.84.

In the case of `Nc1ncnc2n[nH]c(Nc3ccc(F)cc3)c12` [CGP 57380], under “2.5 uM”, the “Average LMP1 Fold Increase” value is given as 1.33, the “Replicate 1-LMP1 Fold Increase” value came to 0.81 and the “Replicate 2-LMP1 Fold Increase” value stood at 1.86.

As to `CCNC(=O)[C@H]1O[C@@H](n2cnc3c(N)nc(NCCc4ccc(CCC(=O)O)cc4)nc32)[C@H](O)[C@@H]1O` [CGS 21680 HCl], the fold induction at 2.5 µM reads like this: under setting [1], 0.7; under setting [2], 0.72; under setting [3], 0.68.

In the case of `O=c1[nH]c2ccc(Cl)cc2c(N[C@@H]2CN3CCC2CC3)c1-c1nc2ccccc2[nH]1` [CHIR-124], for the setting “2.5 uM”, the “Average LMP1 Fold Increase” value was determined as 68.46, the “Replicate 1-LMP1 Fold Increase” value was 105.57 and the “Replicate 2-LMP1 Fold Increase” value is on record as 31.35.

Take `Cc1[nH]c2ccccc2c1CCNC(=O)c1cccs1` [CK-636]: for the setting “2.5 uM”, the “Average LMP1 Fold Increase” value came out at 1.27, the “Replicate 1-LMP1 Fold Increase” value came out at 0.69 and the “Replicate 2-LMP1 Fold Increase” value is 1.84.

With `C=CC(=O)Nc1cccc(Nc2nc(Nc3ccc(Oc4ccnc(C(=O)NC)c4)cc3)ncc2F)c1` [CNX-774], where the note is “2.5 uM”, the “Average LMP1 Fold Increase” value is 0.62, the “Replicate 1-LMP1 Fold Increase” value is given as 0.51 and the “Replicate 2-LMP1 Fold Increase” value was 0.73.

`CN(C)C(=O)[C@H](O)[C@H](Cc1ccccc1)NC(=O)c1cc2cc(Cl)ccc2[nH]1` [CP-91149]: under “2.5 uM”, the “Average LMP1 Fold Increase” value was determined as 0.64, the “Replicate 1-LMP1 Fold Increase” value was 0.49 and the “Replicate 2-LMP1 Fold Increase” value is on record as 0.80.

`COCCOc1ccc2c(c1)ncn2-c1ccc2cccc(N3CCC(N)CC3)c2n1` [CP-673451]: the fold induction at 2.5 µM under setting [1] was 0.49, the fold induction at 2.5 µM under setting [2] was 0.52 and the fold induction at 2.5 µM under setting [3] is 0.45.

As for `O=C(O)c1cc2cccc([N+](=O)[O-])c2[nH]1` [CRT0044876], under “2.5 uM”, the “Average LMP1 Fold Increase” value was determined as 0.44, the “Replicate 1-LMP1 Fold Increase” value is 0.55 and the “Replicate 2-LMP1 Fold Increase” value was 0.33.

As for `O=C(/C=C/c1ccc(O)c(O)c1)OCCc1ccccc1` [Caffeic Acid Phenethyl Ester], the fold induction at 2.5 µM worked out at 0.46 under setting [1], 0.59 under setting [2] and 0.33 under setting [3].

In the case of `Cc1ccc([C@@H]2O[C@H](CO)[C@@H](O)[C@H](O)[C@H]2O)cc1Cc1ccc(-c2ccc(F)cc2)s1` [Canagliflozin], under “2.5 uM”, the “Average LMP1 Fold Increase” value was 0.63, the “Replicate 1-LMP1 Fold Increase” value stood at 0.52 and the “Replicate 2-LMP1 Fold Increase” value is listed as 0.75.

For the molecule `CCOc1nc2cccc(C(=O)O)c2n1Cc1ccc(-c2ccccc2-c2nnn[nH]2)cc1` [Candesartan], the fold induction at 2.5 µM is, setting by setting: under setting [1], 0.43; under setting [2], 0.34; under setting [3], 0.52.

Consider `C[C@H](CS)C(=O)N1CCC[C@H]1C(=O)O` [Captopril], for which the fold induction at 2.5 µM under setting [1] was 0.62, the fold induction at 2.5 µM under setting [2] worked out at 0.71 and the fold induction at 2.5 µM under setting [3] was determined as 0.52.

As for `COc1ccccc1OCCNCC(O)COc1cccc2[nH]c3ccccc3c12` (stereo not drawn) [Carvedilol], the fold induction at 2.5 µM is, setting by setting: under setting [1], 0.88; under setting [2], 0.89; under setting [3], 0.87.

`Cc1ccc(-c2cc(C(F)(F)F)nn2-c2ccc(S(N)(=O)=O)cc2)cc1` [Celecoxib]: the fold induction at 2.5 µM by setting is: under setting [1], 0.62; under setting [2], 0.63; under setting [3], 0.62.

For the molecule `COc1ccc([C@]2(C#N)CC[C@@H](C(=O)O)CC2)cc1OC1CCCC1` [Cilomilast], the fold induction at 2.5 µM reads like this: under setting [1], 1.06; under setting [2], 0.95; under setting [3], 1.18.

Consider `C[C@@H](NCCCc1cccc(C(F)(F)F)c1)c1cccc2ccccc12` [Cinacalcet HCl], for which the fold induction at 2.5 µM runs as follows: under setting [1], 0.75; under setting [2], 1.17; under setting [3], 0.34.

For `Nc1nc(Cl)nc2c1ncn2[C@H]1C[C@H](O)[C@@H](CO)O1` [Cladribine], the fold induction at 1 µM turned out to be 38.7 (read-out: Average LMP1 Fold Increase, Kem I cells, 1 uM, 48 hours, average of replicates 1 and 2); 71.4 (read-out: Replicate 1-LMP1 Fold Increase, Kem I cells, 1 uM, 48 hours, fold change in LMP1 transcript vs vehicle); 6.02 (read-out: Replicate 2-LMP1 Fold Increase, Kem I cells, 1 uM, 48 hours, fold change in LMP1 transcript vs vehicle).

For `CN1CCC[C@@H]1CCO[C@](C)(c1ccccc1)c1ccc(Cl)cc1` [Clemastine Fumarate], the fold induction at 2.5 µM amounted to 0.67 under setting [1], 0.64 under setting [2] and 0.69 under setting [3].

With `C=C1C(=O)O[C@@H]2/C=C(\C)CC/C=C(\C)CC[C@@H]12` [Costunolide], the fold induction at 2.5 µM runs as follows: under setting [1], 1.21; under setting [2], 0.79; under setting [3], 1.62.

On to `CC1(COc2ccc3c(c2)ncn3-c2ccc3cccc(N4CCC(N)CC4)c3n2)COC1` [Crenolanib (CP-868596)], for which, for the setting “2.5 uM”, the “Average LMP1 Fold Increase” value worked out at 4.04, the “Replicate 1-LMP1 Fold Increase” value is recorded as 2.56 and the “Replicate 2-LMP1 Fold Increase” value stood at 5.53.

Regarding `C[C@H]1COC2=C1C(=O)C(=O)c1c2ccc2c1CCCC2(C)C` [Cryptotanshinone], the fold induction at 2.5 µM under setting [1] stood at 0.85, the fold induction at 2.5 µM under setting [2] worked out at 0.94 and the fold induction at 2.5 µM under setting [3] amounted to 0.77.

On to `CC(=O)O[C@]1(C(C)=O)CC[C@H]2[C@@H]3C=C(Cl)C4=CC(=O)[C@@H]5C[C@@H]5[C@]4(C)[C@H]3CC[C@@]21C` [Cyproterone Acetate], for which the fold induction at 2.5 µM is, setting by setting: under setting [1], 0.26; under setting [2], 0.27; under setting [3], 0.24.

With `Nc1ccn([C@@H]2O[C@H](CO)[C@@H](O)[C@@H]2O)c(=O)n1` [Cytarbine], where the note is “1 uM”, the “Average LMP1 Fold Increase” value is given as 2.31, the “Replicate 1-LMP1 Fold Increase” value is reported as 2.61 and the “Replicate 2-LMP1 Fold Increase” value is 2.01.

Regarding `c1ccc(CNc2nc(NCc3ccccc3)c3ccccc3n2)cc1` [DBeQ], where the note is “2.5 uM”, the “Average LMP1 Fold Increase” value came to 0.99, the “Replicate 1-LMP1 Fold Increase” value is reported as 0.72 and the “Replicate 2-LMP1 Fold Increase” value worked out at 1.25.

In the case of `CNC(=O)c1cc(Oc2ccc(NC(=O)Nc3cc(C(C)(C)C)nn3-c3ccc4ncccc4c3)c(F)c2)ccn1` [DCC-2036 (Rebastinib)], for the setting “2.5 uM”, the “Average LMP1 Fold Increase” value stood at 0.38, the “Replicate 1-LMP1 Fold Increase” value is 0.50 and the “Replicate 2-LMP1 Fold Increase” value is given as 0.25.

On to `CC(C)Oc1ccc(-c2cnc3c(-c4ccnc5ccccc45)cnn3c2)cc1` [DMH1], for which, under “2.5 uM”, the “Average LMP1 Fold Increase” value is recorded as 0.75, the “Replicate 1-LMP1 Fold Increase” value was found to be 0.21 and the “Replicate 2-LMP1 Fold Increase” value was determined as 1.28.

The record behind these values is patent US20230053688A1, “METHODS TO ALTER LATENCY IN EBV+ MALIGNANCIES” (Cornell University, priority 2020, published 2023).
